The results in this text go back to US7060673B2, “Fusion peptide of human parathyroid hormone derived peptide and tat peptide, preparation thereof, and skin slimming cosmetic composition comprising the same” (LG Household and Health Care Ltd., priority 2001, dated 2006).

The subject of assay [1] is 3T3-L1 cell differentiated into adipocyte. Briefly: Lipolysis effects test (glycerol secretion by differentiated adipocytes). The note with it: 24 hours, absorbency at 540 nm.
The subject of assay [2] is healthy adult women with local obesity or cellulite inside of a thigh. The note with it: O/W emulsion coated on one leg for one month, control emulsion on the other leg; 5 women. As for the experimental part:
In order to examine slimming effects, clinical tests were conducted on 5 healthy adult women of ages 18˜46 with local obesity or cellulite inside of a thigh (Method of testing primary irritant substances 38(187): pp1500–1541).
The fusion peptide prepared in Example 1 was prepared in the form of an O/W emulsion and used in the test. A control (O/W emulsion without sample) was coated on one leg, and an O/W emulsion comprising the compound of Chemical Formula 1 of the present invention was coated on the other leg, for one month, and then the thickness of the lipid layer was quantified.

For `CC(C)NCC(O)c1ccc(O)c(O)c1` (stereo not shown) [Isoproterenol, isoproterenol, reference compound], the “Lipolysis increase rate (%)” value in assay [1] (concentration 10^−5 M) is given as 12.5%; in assay [1] (concentration 10^−6 M), 39.0%; in assay [1] (concentration 10^−7 M), 34.5%; in assay [1] (concentration 10^−8 M) it was 17.3%.

Consider KKKKKKKKKGKH, for which the “Lipolysis increase rate (%)” value in assay [1] (concentration 10^−5 M) is given as 43.4%; in assay [1] (concentration 10^−5 M, listed as compound represented by the Chemical Formula 1), 43%; in assay [1] (concentration 10^−6 M), 10.3%; in assay [1] (concentration 10^−7 M) it was 17.4%; in assay [1] (concentration 10^−8 M), 8.6%. The lipid layer decrease in assay [2] came to 18%.
